In patent US20020035260A1, “4-aza-steroids” (Novopharm Limited, priority 1997, published 2002):
Values joined by “and” are separate entries in the source; they are usually repeats but may differ in a detail not shown here. Equal entries are not always repeated. Where two headings read alike, the source gives them in different places.

How the values were obtained:
Assay type in all cases: biochemical
[1] = molecular target: T1, 5-α-reductase II enzyme (Rattus norvegicus, UniProt P31214); assay: Rat 5-α-reductase II enzyme assay (rat epididymus); conditions: range of IC50 values from different experiments; Tris-citrate pH 4.5
T1 construct: from tissue; host or cells: rat epididymis (Sprague Dawley), particulate fraction
T1 sequence (P31214 1-254): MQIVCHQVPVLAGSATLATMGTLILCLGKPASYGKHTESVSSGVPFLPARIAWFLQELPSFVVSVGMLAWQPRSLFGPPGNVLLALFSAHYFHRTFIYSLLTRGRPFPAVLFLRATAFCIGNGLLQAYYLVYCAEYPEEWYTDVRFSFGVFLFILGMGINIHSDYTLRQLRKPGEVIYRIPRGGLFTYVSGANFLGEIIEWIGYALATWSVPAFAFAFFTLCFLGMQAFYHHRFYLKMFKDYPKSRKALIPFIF
Method: (§1) Biochemical Assays were carried out to determine the inhibitory activities of various compounds of the previous examples on 5-α-reductase I enzyme isolated from male rate prostate and 5-α-reductase II enzyme isolated from rat epididymus and human prostate. These procedures were carried out following published literature procedures (H. Takami et al., J. Med. Chem., 39, pp 5047-5052; Tehming Liang, Margaret A. Cascieri et al., Endocrinology, 117, pp 571-579). Brief descriptions are as follows:
(§2) Rat 5-α-reductase I enzyme assay. Prostates, removed from 16 young male Sprague dawley rats (each weighing about 300-400 g), were minced and homogenized at 0-4° C. in 3 tissue volumes of buffer (0.32 M sucrose, 1 mM dithiothreitol, and 20 mM phosphate buffer, pH 6.5) using a polytron homogenizer. The homogenate was centrifuged at 4° C. at 140,000 g for 1 hour. The resultant pellet, after washing with the homogenizing buffer was suspended in the same buffer and stored at −70° C. The assay was carried out in a final volume of 0.5 ml containing 20 mM phosphate buffer (pH 6.5), 1 mM dithiothreitol, 150 μM NADPH, 2 μM ^14C testosterone and the enzyme concentration (500 μg-1 mg) For conducting the inhibitory studies on a 5-α-reductase I, finasteride and other test compounds were added in 10 μl of ethanol to a concentration 10^−9 to 10^−5 with five to six points including control using duplicate for each point to the above reaction mixture. The incubations were done for 20 minutes at 37° C. The reactions were stopped by adding 2.0 ml of ethyl acetate containing testosterone, 5-α-dihydrotestosterone, and androstenedione (10 μg each). After centrifugation at 1000 g for 5 minutes, the upper ethyl acetate extract was transferred to a tube and then evaporated under nitrogen to dryness. The compounds were taken up in 50 μl of ethyl acetate and chromatographed on Whatman LK5DF silica GF TLC plates using ethyl acetate-cyclohexane (1:1). The respective TLC spots corresponding to testosterone and dihydrotestosterone (Rf value same as that of androstenedione) were scraped from the plate and taken in respective scintillation vials. They were counted in the Beckman scintillation counter model No. LS 6500 with counting efficiency of 95% for ^14C carbon. Finasteride was used as a known standard during all screening. The range of IC50 values for different test compounds obtained from different experiments is shown in Table 1 under the column, Rat Prostate Enzyme I IC50.
(§3) Rat 5-α-reductase II enzyme assay: Epididymus, taken out during the isolation of the rat prostates during rat enzyme I assay, was stored at −70° C. Isolation of the enzyme and the assay were carried out following the procedure described above, except the reaction buffer used was 40 mM Tris-citrate, pH 4.5. The range of IC50 values for different test compounds obtained from different experiments is shown in Table 1 under the column, Rat Epididymus Enzyme II IC50.

[2] = molecular target: T2, 5-α-reductase II enzyme (Homo sapiens, UniProt P31213); assay: Human 5-α-reductase II enzyme assay (human prostate); conditions: Tris-citrate pH 5.0
T2 construct: Specimens of human prostates were quickly frozen in dry ice after collection and kept at −70° C. before isolation of the enzyme; from tissue; host or cells: human prostate specimens, particulate fraction
T2 sequence (P31213 1-254): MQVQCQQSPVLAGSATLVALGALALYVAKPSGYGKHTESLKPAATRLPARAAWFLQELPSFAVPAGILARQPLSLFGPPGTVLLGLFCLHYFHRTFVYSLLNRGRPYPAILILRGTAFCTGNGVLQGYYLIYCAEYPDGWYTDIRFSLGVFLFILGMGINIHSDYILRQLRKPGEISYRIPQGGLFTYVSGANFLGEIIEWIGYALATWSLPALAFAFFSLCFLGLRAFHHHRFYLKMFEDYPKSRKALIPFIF
Method: as §1, §3
(§4) Human 5-α-reductase II enzyme assay: Specimens of human prostates were quickly frozen in dry ice after collection and kept at −70° C. before isolation of the enzyme. Isolation of the enzyme and the assay were carried out following a similar procedure as for the isolation of rat 5-α-reductase II enzyme with some modifications. During the isolation of the enzyme, 50 μM NADPH was added to the homogenizing buffer as a stabilizer. The enzyme was stored in the homogenizing buffer containing 20% glycerol. The enzyme reaction buffer used as 40 mM Tris-citrate buffer, pH 5.0. The range of IC50 values for different test compounds obtained from different experiments is shown in Table 1 under the column, Human Prostate Enzyme II IC50.

[3] = molecular target: T3, 5-α-reductase I enzyme (Rattus norvegicus, UniProt P24008); assay: Rat 5-α-reductase I enzyme assay (rat prostate); conditions: range of IC50 values from different experiments; pH 6.5, 2 μM 14C testosterone
T3 construct: Prostates, removed from 16 young male Sprague dawley rats (each weighing about 300-400 g), were minced and homogenized; from tissue; host or cells: rat prostate (Sprague Dawley), 140,000 g pellet
T3 sequence (P24008 1-259): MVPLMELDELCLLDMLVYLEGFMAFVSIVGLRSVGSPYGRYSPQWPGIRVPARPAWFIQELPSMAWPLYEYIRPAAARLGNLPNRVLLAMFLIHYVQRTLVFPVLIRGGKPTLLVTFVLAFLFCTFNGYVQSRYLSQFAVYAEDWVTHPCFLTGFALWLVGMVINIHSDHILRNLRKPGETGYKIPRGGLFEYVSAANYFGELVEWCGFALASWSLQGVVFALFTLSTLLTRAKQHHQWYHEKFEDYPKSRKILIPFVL
Method: as §1, §2

[4] = molecular target: T4, 5-α-reductase type II (Homo sapiens, UniProt P31213); assay: Activity against 5-α-reductase type II; conditions: statement in words, compared with finasteride
T4 sequence (P31213 1-254): T2 sequence (P31213 1-254)
Method: as §3, §4

[5] = range of IC50 values from different experiments, read-out: Human Prostate Enzyme II IC50

Row | Compound | IC50 [1] | IC50 [2, 5] [µM] | IC50 [3] | IC50 ([2]; Human Prostate Enzyme II IC50, range of IC50 values from different experiments) | activity against 5-α-reductase type II [4] | IC50 ([2]; read-out: Human Prostate Enzyme II IC50) [µM]
1 | CC(C)(C)NC(=O)C1CC(O)C2C3CCC4NC(=O)C=CC4(C)C3CCC12C (stereo not drawn) [15-β-hydroxy-finasteride] | 0.64 µM | 0.05 to 0.059 | 0.805 to 0.853 µM |  |  | 
2 | CC(C)(C)NC(=O)[C@H]1CC[C@H]2[C@@H]3[C@H](Cl)C[C@H]4NC(=O)CC[C@]4(C)[C@H]3CC[C@]12C [1,2-Dihydro-7-α-chloro-finasteride, 1,2-dihydro-7-α-chloro-finasteride] | 0.0029 to 0.0086 µM | 0.0115 to 0.044 | 0.053 to 0.099 µM |  |  | 
3 | CC(C)(C)NC(=O)[C@H]1C[C@@H](O)[C@H]2[C@@H]3CC[C@H]4NC(=O)CC[C@]4(C)[C@H]3CC[C@@]21C [1,2-Dihydro-15-β-hydroxy-finasteride, 1,2-dihydro-15β-hydroxy-finasteride] |  |  | 0.351 to 0.468 µM |  |  | 
4 | CC(C)(C)NC(=O)C1CCC2C3CCC4NC(=O)C=CC4(C)C3CCC12C (stereo not drawn) [Finasteride, (5α, 17β)-(1,1-dimethyl-ethyl)-3-oxo-4-aza-androst-1-ene-17-carboxamide, reference compound] | 0.0051 to 0.0148 µM and 0.0029 to 0.0118 µM |  | 0.011 to 0.038 µM and 0.013 to 0.03 µM | 0.0027 to 0.0106 µM and 0.0033 to 0.007 µM |  | 
5 | CC(C)(C)NC(=O)[C@H]1CC[C@H]2[C@@H]3[C@H](Cl)C[C@H]4NC(=O)C=C[C@]4(C)[C@H]3CC[C@]12C [7-α-Chloro-finasteride, 7-α-chloro-finasteride] | 0.00192 to 0.0031 µM | 0.0009 to 0.0036 | 0.306 to 0.35 µM |  | considerably higher than that of finasteride itself | 
6 | Cc1ccc(S(=O)(=O)O[C@H]2C[C@H]3NC(=O)C=C[C@]3(C)[C@H]3CC[C@]4(C)[C@@H](C(=O)NC(C)(C)C)CC[C@H]4[C@H]23)cc1 [7-β-Tosyloxy-finasteride, 7-β-tosyloxy-finasteride] |  | 0.213 to 0.57 | 1.5 to 4.3 µM |  |  | 
7 | CC(=O)O[C@@H]1C[C@H](C(=O)NC(C)(C)C)[C@@]2(C)CC[C@H]3[C@@H](CC[C@H]4NC(=O)C=C[C@@]43C)[C@H]12 [15-β-Acetoxy-finasteride, 15-β-acetoxy-finasteride] | 1.6 to 2.7 µM |  | 4.2 to 5.7 µM |  |  | 2.01
8 | CC(C)(C)NC(=O)[C@H]1CC[C@H]2[C@@H]3[C@H](N=[N+]=[N-])C[C@H]4NC(=O)C=C[C@]4(C)[C@H]3CC[C@]12C [7-α-Azido-finasteride, 7-α-azido-finasteride] |  | 0.019 to 0.032 |  |  | very high specific inhibitory activity | 
9 | CC(C)(C)NC(=O)[C@H]1CC=C2[C@@H]3CC[C@H]4NC(=O)C=C[C@]4(C)[C@H]3CC[C@@]21C [14,15-Dehydro-finasteride, 14,15-dehydro-finasteride] | 0.045 µM | 0.039 to 0.0496 | 0.05 to 0.067 µM |  |  | 
10 | CC(=O)O[C@H]1C[C@H]2NC(=O)C=C[C@]2(C)[C@H]2CC[C@]3(C)[C@@H](C(=O)NC(C)(C)C)CC[C@H]3[C@H]12 [7-β-Acetoxy-finasteride, 7-β-acetoxy-finasteride] | 0.135 to 0.357 µM | 0.175 to 0.362 | 0.385 to 0.697 µM |  |  | 
11 | CC(C)(C)NC(=O)[C@H]1CC[C@H]2[C@@H]3[C@@H](O)C[C@H]4NC(=O)CC[C@]4(C)[C@H]3CC[C@]12C [1,2-Dihydro-7-β-hydroxy-finasteride, 1,2-dihydro-7-β-hydroxy-finasteride] | 0.567 to 0.891 µM | 0.536 to 0.755 | 0.453 to 0.492 µM |  |  | 
12 | CC(C)(C)NC(=O)C1CCC2C3C(CCC12C)C1(C)C=CC(=O)NC1C[C@@H]3O (stereo partly drawn) [7-β-hydroxy-finasteride] | 0.106 µM | 0.062 to 0.064 | 0.811 to 1.8 µM |  |  | 
